Active and inactive are the calls of the source. No cut-off for these calls is given here.
Key:
[1] = biological target: T1, Tyrosine-protein phosphatase non-receptor type 1 (Homo sapiens, UniProt P18031); assay: Inhibition of purified human GST-tagged PTP-1B using p-nitrophenylphosphate as substrate by spectrophotometry
T1 sequence (P18031 whole entry): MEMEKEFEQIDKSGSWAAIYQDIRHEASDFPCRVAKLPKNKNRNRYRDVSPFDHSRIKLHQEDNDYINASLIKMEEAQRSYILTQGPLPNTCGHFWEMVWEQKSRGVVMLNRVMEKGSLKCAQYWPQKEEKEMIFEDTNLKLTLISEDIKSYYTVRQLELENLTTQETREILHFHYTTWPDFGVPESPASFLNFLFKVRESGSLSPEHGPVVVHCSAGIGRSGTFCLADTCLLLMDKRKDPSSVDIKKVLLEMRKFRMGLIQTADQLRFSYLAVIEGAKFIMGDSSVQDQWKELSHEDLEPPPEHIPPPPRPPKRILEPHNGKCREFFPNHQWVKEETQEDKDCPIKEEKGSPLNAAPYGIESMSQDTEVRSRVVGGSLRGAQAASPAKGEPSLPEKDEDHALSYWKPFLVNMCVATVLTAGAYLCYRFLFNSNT

[2] = biological target: T2, Tyrosine-protein phosphatase non-receptor type 2 (Homo sapiens, UniProt P17706); assay: Inhibition of TC-PTP (unknown origin) using p-nitrophenylphosphate as substrate by spectrophotometry
T2 sequence (P17706 whole entry): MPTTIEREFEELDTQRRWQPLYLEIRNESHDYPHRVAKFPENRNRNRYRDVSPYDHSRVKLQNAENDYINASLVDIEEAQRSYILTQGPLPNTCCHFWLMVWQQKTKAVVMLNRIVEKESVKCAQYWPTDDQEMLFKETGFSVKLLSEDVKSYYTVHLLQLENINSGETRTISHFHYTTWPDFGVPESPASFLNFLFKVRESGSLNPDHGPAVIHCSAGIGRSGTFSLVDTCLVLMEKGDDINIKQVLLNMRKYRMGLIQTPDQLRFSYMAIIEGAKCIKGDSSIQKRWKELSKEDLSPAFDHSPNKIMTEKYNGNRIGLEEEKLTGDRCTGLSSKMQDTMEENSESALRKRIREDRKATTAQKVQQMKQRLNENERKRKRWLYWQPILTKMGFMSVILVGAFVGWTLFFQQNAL

[3] = biological target: T3, Low molecular weight phosphotyrosine protein phosphatase (Homo sapiens, UniProt P24666); assay: Inhibition of human LMW-PTP IF1 using p-nitrophenylphosphate as substrate by spectrophotometry
T3 sequence (P24666 whole entry): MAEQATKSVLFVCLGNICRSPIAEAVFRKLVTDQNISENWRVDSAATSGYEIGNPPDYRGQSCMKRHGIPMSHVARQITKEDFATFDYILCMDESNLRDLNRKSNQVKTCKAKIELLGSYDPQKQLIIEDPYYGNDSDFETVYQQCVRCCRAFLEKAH

[4] = biological target: T3, Low molecular weight phosphotyrosine protein phosphatase; assay: Inhibition of human LMW-PTP IF2 using p-nitrophenylphosphate as substrate by spectrophotometry
[5] = biological target: T1, Tyrosine-protein phosphatase non-receptor type 1; assay: Non-competitive inhibition of purified human GST-tagged PTP-1B using p-nitrophenylphosphate as substrate by double-reciprocal plot method
Rattus norvegicus [6] = assay: Antidiabetic activity in NIDDM Wistar rat model assessed as reduction blood glucose level at 50 mg/kg, po measured after 1 hr post dose by glucometry; assay type: functional, organism-based; set-up: dose 50 mg/kg
Rattus norvegicus [7] = assay: Antidiabetic activity in NIDDM Wistar rat model assessed as reduction blood glucose level at 50 mg/kg, po measured after 3 hrs post dose by glucometry; assay type: functional; set-up: scale not given: the % may be the effect or the level left
[8] = biological target: T1, Tyrosine-protein phosphatase non-receptor type 1; assay: Mixed-type inhibition of purified human GST-tagged PTP-1B using p-nitrophenylphosphate as substrate by double-reciprocal plot method

`CCCO[C@H]1CC[C@]2(C)[C@H]3CC=C4[C@@H]5CC(C)(C)CC[C@]5(C(=O)O)CC[C@@]4(C)[C@]3(C)CC[C@H]2C1(C)C` was tested, and the IC50 [1] was 36.5 µM.
For `CC1(C)CC[C@]2(C(=O)O)CC[C@]3(C)C(=CC[C@@H]4[C@@]5(C)CC[C@H](OC(=O)c6ccccc6)C(C)(C)[C@@H]5CC[C@]43C)[C@@H]2C1`, the IC50 [1] was 16.2 µM.
For `CCO[C@H]1CC[C@]2(C)[C@H]3CC=C4[C@@H]5CC(C)(C)CC[C@]5(C(=O)O)CC[C@@]4(C)[C@]3(C)CC[C@H]2C1(C)C`, the IC50 [1] was 5.3 µM, the IC50 [2] was 26 µM and the IC50 [3] was 16.4 µM. For the same compound, the IC50 [4] was 47.4 µM, the Ki [5] was 4.8 µM and the Activity (Rattus norvegicus [6]) was “inactive”. It also gave an Activity (Rattus norvegicus [7]) of over 20%.
With `C/C=C/C(=O)O[C@H]1CC[C@]2(C)[C@H]3CC=C4[C@@H]5CC(C)(C)CC[C@]5(C(=O)O)CC[C@@]4(C)[C@]3(C)CC[C@H]2C1(C)C` the IC50 [1] was 17.8 µM.
Work on `CC1(C)CC[C@]2(C(=O)O)CC[C@]3(C)C(=CC[C@@H]4[C@@]5(C)CC[C@H](OC(=O)/C=C/c6ccccc6)C(C)(C)[C@@H]5CC[C@]43C)[C@@H]2C1` yielded an IC50 [1] of 6.1 µM, an IC50 [2] of 11.8 µM and an IC50 [3] of 6.9 µM. For the same compound, the IC50 [4] was 12.3 µM, the Ki [8] was 2.1 µM and the Activity (Rattus norvegicus [6]) was “Active”. For the same compound, the Activity (Rattus norvegicus [7]) was “Active”.
`CO[C@H]1CC[C@]2(C)[C@H]3CC=C4[C@@H]5CC(C)(C)CC[C@]5(C(=O)O)CC[C@@]4(C)[C@]3(C)CC[C@H]2C1(C)C` showed an IC50 [1] of 8.6 µM.
`CC(=O)O[C@H]1CC[C@]2(C)[C@H]3CC=C4[C@@H]5CC(C)(C)CC[C@]5(C(=O)O)CC[C@@]4(C)[C@]3(C)CC[C@H]2C1(C)C` [ACETYL OLEANOLIC ACID] showed an IC50 [1] of 21.5 µM.
